Experimental data: patent US20160067211A1, “PHARMACEUTICAL COMPOSITION” (Eberhard Karls Universitaet Tuebingen Medizinische Fakultaet, priority 2013, published 2016)

Experiments:
[1] = system: SK-MEL-28 melanoma cells; assay: PI/Annexin V staining FACS, SK-MEL-28; assay type: cell-based, human; conditions: SK-MEL-28, 100 μM; for annexin V positive (apoptotic) cells: DMSO control 2.5%; for PI positive (nectrotic) cells: DMSO control 7.9%
Method: (A) Cell cycle FACS analyses of PI stained BLM and SK-MEL-28 melanoma cells. 100 μM of 8-PN-induced a G2 arrest in both cells. (B) FACS analyses of BLM and SK-MEL-28 melanoma cells treated with 100 μM 6-PN or 8-PN and stained for annexin V/PI; staurosporin was used as control for apoptosis induction and DMSO as vehicle control. […] (C) BLM and SK-MEL-28 melanoma cells were treated with 100 μM of PNs; TSA, SAHA and EMSO were used as controls.
To further analyze the possibility of apoptosis induction, an extensive apoptosis assay was performed on SK-MEL-28 melanoma cells 4 hours after treatment with 100 μM 6-PN or 8-PN (FIG. 9). […] This was verified by FACS cell cycle analyses to screen for a possible increase of the sub-G1 fraction of cells (apoptotic cells) or for the induction of a G2 arrest (inhibition of proliferation). […] To further differentiate between the induction of apoptosis and/or necrosis an PI/Annexin V staining of SK-MEL-28 and BLM cells was performed 4 hours and 24 hours after the treatment with 6-PN or 8-PN; 10 μM staurosporin (6 hours treatment) was used as positive control for the induction of apoptosis; DMSO treatment was used as vehicle control. The cells were then analyzed by FACS.

[2] = system: HT-29 colon cancer cells; assay: MUH proliferation assay, HT-29; assay type: cell-based; conditions: rising concentrations 0.1 μM to 100 μM, 48 hours
Method: FIG. 6: 6-PN and 8-PN inhibit the growth of MCF-7 and HT-29. (A, B) MUH proliferation assay of HT-29 colon cancer cells and MCF-7 breast cancel cells treated with increasing concentrations of 6-PN and 8-PN (0.1 μM to 100 μM) for 48 hours. Shown are the mean±S.A.; the experiments were performed in quadruplicates.
The cells were seeded in triplicates in 96-well plates at a density of 2,500 cells per well in 50 μl medium (5×10^4 cells per milliliter). After 24 hours, the medium was replaced by medium containing 6-PN, 8-PN (dissolved in DMSO), TSA (dissolved in EtOH) or SAHA (dissolved in DMSO) at the concentrations to be tested with or without the addition of the necrosis inhibitor IM-54 at 5 μM (Calbiochem, Darmstadt, Germany). Cells treated with culture medium without or with DMSO served as controls. The assay was started following an incubation of 24 hours. The medium was discarded, each well was washed two times with PBS (without Ca^++ and Mg^++) and 100 μl of a solution containing […] of 4-methyl umbellipheryl heptanoate per ml PBS was added. Plates were incubated at 37° C. for 1 hour and measured in a Fluoroskan II (Lab Systems, Helsinki, Finland) with a […]. The intensity of fluorescence indicates the number of viable cells in the wells. […]

CC(C)=CCc1c(O)cc(O)c2c1OC(c1ccc(O)cc1)CC2=O (centres unmarked) [8-PN, 5,7-Dihydroxy-2-(4-hydroxy-phenyl)-8-(3-methyl-but-2-enyl)-chroman-4-one]
annexin V positive (apoptotic) cells ([1]; 4 hours): 0.2%
PI positive (nectrotic) cells ([1]; 4 hours): 29.9%
annexin V positive (apoptotic) cells ([1]; 24 hours): 0.5%
PI positive (nectrotic) cells ([1]; 24 hours): 58.2%
cell proliferation [2]: severe reduction
